This passage reports EC50 results from US10214544B2, “Imidazopyridazine and imidazothiadiazole compounds” (Universite de Montreal, priority 2015, dated 2019).

pEC50: −log10 of the molar value.

Sequence of PAR4 (Q96RI0 18-385): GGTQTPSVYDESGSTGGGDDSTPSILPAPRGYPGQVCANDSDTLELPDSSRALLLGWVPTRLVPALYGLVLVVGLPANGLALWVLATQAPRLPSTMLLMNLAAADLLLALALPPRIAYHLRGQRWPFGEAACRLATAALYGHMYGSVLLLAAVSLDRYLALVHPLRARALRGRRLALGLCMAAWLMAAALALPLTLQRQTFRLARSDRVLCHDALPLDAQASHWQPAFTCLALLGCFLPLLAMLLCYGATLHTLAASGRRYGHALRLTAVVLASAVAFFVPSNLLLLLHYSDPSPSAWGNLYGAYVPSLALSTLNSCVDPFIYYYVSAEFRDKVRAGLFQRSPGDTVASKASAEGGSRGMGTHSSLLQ

This assay concerns the target PAR4 (Homo sapiens (Human), UniProt Q96RI0). As to the kind of experiment: FLIPR assay in PAR4-expressing HEK293 cells (PAR4 antagonist activity). It is filed as cell-based. To be noted: inhibition of H-Ala-Phe(4-F)-Pro-Gly-Trp-Leu-Val-Lys-Asn-Gly-NH2-induced intracellular calcium mobilization. The text has this:
The FLIPR assay is an exemplary in vitro assay for measuring the activity of the PAR4 antagonists of the present invention. In this assay, intracellular calcium mobilization is induced in PAR4 expressing cells by a PAR4 agonist and calcium mobilization is monitored. See, e.g., Example A.
HEK293 cells stably expressing PAR4 were generated by a standard method of transfection of human PAR4 (F2R23) cDNA expression vector and selected based on PAR4 protein expression or mRNA expression. […] These cells also express endogenous PAR1 and can elicit calcium signal upon stimulation with PAR1 agonist peptide. Therefore, the same cells were also used to determine selectivity against PAR1 and agonist activity for both receptors. Cells from HEK293 PAR4 Clone 1.2A (BMS Arctic ID 383940) were propagated and used for calcium mobilization studies.
FLIPR-based calcium mobilization assay in HEK293 cells was used to measure PAR4 antagonism, agonism, and selectivity against PAR1. The activity of the PAR4 antagonists of the present invention were tested in PAR4 expressing cells by monitoring H-Ala-Phe(4-F)-[…]NH2-induced intracellular calcium mobilization. Counter screens for agonist activity and PAR1 antagonist activity were also performed. Briefly, PAR1/PAR4-expressing HEK293 cells were grown in DMEM (Life Technology, Grand Island, N.Y.) containing 10% heat-inactivated FBS, 1% Penicillin-Streptomycin, 10 μg/mL blasticidin, and 100 μg/mL Zeocin at 37° C. with 5% CO2. Cells were plated overnight prior to the experiment in a black 384-well Purecoat Amine clear bottom plate (Becton Dickinson Biosciences, San Jose, Calif.) at 10,000 cells/well in 30 μL growth medium and incubated in a humidified chamber at 37° C. with 5% CO2 overnight. Prior to compound addition, the cell medium was replaced with […] of 1× calcium and magnesium-containing Hank's Balanced Saline Solution (HBSS) (with 20 mM HEPES) and 1:1000 diluted fluorescent calcium indicator (Codex Biosolutions, Gaithersburg, Md.). After a 30 minute incubation period at 37° C. and a further 30 minute incubation and equilibration period at room temperature, 20 μL test compound (diluted in 1× HBSS buffer) was added at various concentrations at 0.17% dimethyl sulfoxide (DMSO) final concentration. Changes in fluorescence intensity were measured using a Functional Drug Screening System (FDSS, Hamamatsu, Japan) to determine agonist activities. The cells were then incubated for 30 minutes at room temperature followed by addition of 20 μL of agonist peptide for antagonist activity measurement. […] Compound potency was derived from 11-point concentration-response curves.
The following Table sets out results obtained employing various compounds of the invention tested in the FLIPR assay. As indicated above, the FLIPR assay, an in vitro assay, measures the PAR4 antagonist activity of compounds tested as described in Example A.
On to `COc1cc(OCc2cccc(NC(=O)c3ccccc3)c2)c2cc(-c3cn4nc(OC)sc4n3)oc2c1` [Example 1, N-(3-(((6-methoxy-2-(2-methoxyimidazo[2,1-b][1,3,4]thiadiazol-6-yl)benzofuran-4-yl)oxy)methyl)phenyl)benzamide], for which the negative-log EC50 (pEC50) was 8.96.

Turning to `COc1cc(OCc2cccc(NC(=O)c3ccc(F)cc3)c2)c2cc(-c3cn4nc(OC)sc4n3)oc2c1` [Example 2, 4-Fluoro-N-(3-(((6-methoxy-2-(2-methoxyimidazo[2,1-b][1,3,4]thiadiazol-6-yl)benzofuran-4-yl)oxy)methyl)phenyl)benzamide], the pEC50 was 9.00.

Take `COc1cc(OCc2cccc(NC(=O)OC(C)(C)C)c2)c2cc(-c3cn4nc(OC)sc4n3)oc2c1` [Example 3, tert-Butyl (3-(((6-methoxy-2-(2-methoxyimidazo[2,1-b][1,3,4]thiadiazol-6-yl)benzofuran-4-yl)oxy)methyl)phenyl)carbamate]: the pEC50 was 8.59.

As to `COc1cc(OCc2cccc(N)c2)c2cc(-c3cn4nc(OC)sc4n3)oc2c1` [Example 4, 3-(((6-Methoxy-2-(2-methoxyimidazo[2,1-b][1,3,4]thiadiazol-6-yl)benzofuran-4-yl)oxy)methyl)aniline], the negative logarithm of the EC50 (pEC50) was 7.77.

As to `COc1cc(OCc2cccc(NC(=O)c3ccc(Cl)cc3)c2)c2cc(-c3cn4nc(OC)sc4n3)oc2c1` [Example 5, 4-Chloro-N-(3-(((6-methoxy-2-(2-methoxyimidazo[2,1-b][1,3,4]thiadiazol-6-yl)benzofuran-4-yl)oxy)methyl)phenyl)benzamide], the pEC50 is 8.89.

As to `COc1cc(OCc2cccc(NC(=O)c3cccc(OC(F)(F)F)c3)c2)c2cc(-c3cn4nc(OC)sc4n3)oc2c1` [Example 6, N-(3-(((6-methoxy-2-(2-methoxyimidazo[2,1-b][1,3,4]thiadiazol-6-yl)benzofuran-4-yl)oxy)methyl)phenyl)-3-(trifluoromethoxy)benzamide], the pEC50 is 8.85.

Regarding `COc1cc(OCc2cccc(NS(=O)(=O)c3ccccc3)c2)c2cc(-c3cn4nc(OC)sc4n3)oc2c1` [Example 7, N-(3-(((6-methoxy-2-(2-methoxyimidazo[2,1-b][1,3,4]thiadiazol-6-yl)benzofuran-4-yl)oxy)methyl)phenyl)benzenesulfonamide], the pEC50 was 8.00.

Take `COc1cc(OCc2cccc(NC(=O)c3ccccc3OC(C)=O)c2)c2cc(-c3cn4nc(OC)sc4n3)oc2c1` [Example 8]: the pEC50 is 8.80.

On to `COc1cc(OCc2cccc(NC(=O)c3cc(C(F)(F)F)ccc3C(F)(F)F)c2)c2cc(-c3cn4nc(OC)sc4n3)oc2c1` [Example 9], for which the pEC50 is 8.70.

As to `COc1cc(OCc2cccc(NC(=O)c3cccc(Br)c3)c2)c2cc(-c3cn4nc(OC)sc4n3)oc2c1` [Example 10], the pEC50 is 8.72.

With `COc1cc(OCc2cccc(NC(=O)c3cccc(Cl)c3)c2)c2cc(-c3cn4nc(OC)sc4n3)oc2c1` [Example 11], the pEC50 was 8.77.

As to `COc1cc(OCc2cccc(NC(=O)c3c(Cl)cccc3Cl)c2)c2cc(-c3cn4nc(OC)sc4n3)oc2c1` [Example 12], the negative-log EC50 (pEC50) was 8.82.

For `COc1cc(OCc2cccc(NC(=O)c3ccccc3C(F)(F)F)c2)c2cc(-c3cn4nc(OC)sc4n3)oc2c1` [Example 13], the negative logarithm of the EC50 (pEC50) is 8.72.

For the molecule `COc1cc(OCc2cccc(NC(=O)c3ccc(F)c(F)c3F)c2)c2cc(-c3cn4nc(OC)sc4n3)oc2c1` [Example 14], the pEC50 is 8.85.

Turning to `COc1cc(OCc2cccc(NC(=O)c3cccc4ccccc34)c2)c2cc(-c3cn4nc(OC)sc4n3)oc2c1` [Example 15], the pEC50 was 8.77.

As to `COc1cc(OCc2cccc(NC(=O)c3cccc(C#N)c3)c2)c2cc(-c3cn4nc(OC)sc4n3)oc2c1` [Example 16], the pEC50 was 8.85.

For the molecule `COc1cc(OCc2cccc(NC(=O)COCc3ccccc3)c2)c2cc(-c3cn4nc(OC)sc4n3)oc2c1` [Example 17], the pEC50 was 9.26.

With `COc1ccc(C(=O)Nc2cccc(COc3cc(OC)cc4oc(-c5cn6nc(OC)sc6n5)cc34)c2)cc1` [Example 18], the pEC50 is 9.04.

On to `COc1cc(OCc2cccc(NC(=O)c3cc(Cl)cc(Cl)c3)c2)c2cc(-c3cn4nc(OC)sc4n3)oc2c1` [Example 19], for which the pEC50 was 8.48.

For `COc1cc(OCc2cccc(NC(=O)c3cccc(C)c3)c2)c2cc(-c3cn4nc(OC)sc4n3)oc2c1` [Example 20], the pEC50 is 8.85.

On to `COc1cc(OCc2cccc(NC(=O)c3c(F)cc(F)cc3F)c2)c2cc(-c3cn4nc(OC)sc4n3)oc2c1` [Example 21], for which the negative logarithm of the EC50 (pEC50) is 8.82.

On to `COc1cc(OCc2cccc(NC(=O)c3ccc4c(c3)OCO4)c2)c2cc(-c3cn4nc(OC)sc4n3)oc2c1` [Example 22], for which the pEC50 is 8.96.

`COc1cc(OCc2cccc(NC(=O)c3ccc4ccccc4c3)c2)c2cc(-c3cn4nc(OC)sc4n3)oc2c1` [Example 23]: the pEC50 is 8.74.

In the case of `COc1cc(OCc2cccc(NC(=O)c3ccccc3I)c2)c2cc(-c3cn4nc(OC)sc4n3)oc2c1` [Example 24], the pEC50 was 8.85.

In the case of `COc1cc(OCc2cccc(NC(=O)c3ccccc3Cl)c2)c2cc(-c3cn4nc(OC)sc4n3)oc2c1` [Example 25], the pEC50 was 8.77.

On to `COc1cc(OCc2cccc(NC(=O)c3ccccc3F)c2)c2cc(-c3cn4nc(OC)sc4n3)oc2c1` [Example 26], for which the negative-log EC50 (pEC50) is 9.12.

Take `COc1cc(OCc2cccc(NC(=O)c3ccccc3C)c2)c2cc(-c3cn4nc(OC)sc4n3)oc2c1` [Example 27]: the negative logarithm of the EC50 (pEC50) was 9.06.

In the case of `COc1cc(OCc2cccc(NC(=O)c3cccc(F)c3)c2)c2cc(-c3cn4nc(OC)sc4n3)oc2c1` [Example 28], the negative-log EC50 (pEC50) is 8.70.

On to `COc1cc(OCc2cccc(NC(=O)c3ccccc3OC)c2)c2cc(-c3cn4nc(OC)sc4n3)oc2c1` [Example 29], for which the pEC50 was 8.96.

`COc1cc(OCc2cccc(NC(=O)c3ccc(F)c(C(F)(F)F)c3)c2)c2cc(-c3cn4nc(OC)sc4n3)oc2c1` [Example 30]: the negative logarithm of the EC50 (pEC50) is 8.74.

`CCCc1ccc(C(=O)Nc2cccc(COc3cc(OC)cc4oc(-c5cn6nc(OC)sc6n5)cc34)c2)cc1` [Example 31]: the pEC50 was 8.89.

With `COc1cc(OCc2cccc(NC(=O)c3ccc(C)cc3)c2)c2cc(-c3cn4nc(OC)sc4n3)oc2c1` [Example 32], the pEC50 was 8.80.

Regarding `COc1cc(OCc2cccc(NC(=O)c3ccc([N+](=O)[O-])cc3)c2)c2cc(-c3cn4nc(OC)sc4n3)oc2c1` [Example 33], the negative-log EC50 (pEC50) is 8.74.

On to `COC(=O)c1ccc(C(=O)Nc2cccc(COc3cc(OC)cc4oc(-c5cn6nc(OC)sc6n5)cc34)c2)cc1` [Example 34], for which the pEC50 was 8.92.

With `COc1cc(OCc2cccc(NC(=O)COc3ccccc3)c2)c2cc(-c3cn4nc(OC)sc4n3)oc2c1` [Example 35], the pEC50 was 9.00.

For `COc1cc(OCc2cccc(NC(=O)c3ccc(C#N)cc3)c2)c2cc(-c3cn4nc(OC)sc4n3)oc2c1` [Example 36], the pEC50 is 8.60.

Consider `COc1cc(OCc2cccc(NC(=O)c3ccc(C(C)(C)C)cc3)c2)c2cc(-c3cn4nc(OC)sc4n3)oc2c1` [Example 37], for which the negative logarithm of the EC50 (pEC50) was 8.60.

With `COc1cc(OCc2cccc(NC(=O)NCc3ccccc3)c2)c2cc(-c3cn4nc(OC)sc4n3)oc2c1` [Example 38], the negative-log EC50 (pEC50) is 8.32.

For `COc1cc(OCc2cccc(NC(=O)c3ccc(I)cc3)c2)c2cc(-c3cn4nc(OC)sc4n3)oc2c1` [Example 39], the pEC50 was 8.62.

For the molecule `COc1cc(OCc2cccc(NC(=O)C(C)(C)Oc3ccccc3)c2)c2cc(-c3cn4nc(OC)sc4n3)oc2c1` [Example 40], the pEC50 is 8.85.

In the case of `COc1cc(OCc2cccc(NC(=O)c3ccc(OC(F)(F)F)cc3)c2)c2cc(-c3cn4nc(OC)sc4n3)oc2c1` [Example 41], the pEC50 was 8.85.

In the case of `COc1ccc(C(=O)Nc2cccc(COc3cc(OC)cc4oc(-c5cn6nc(OC)sc6n5)cc34)c2)c(OC)c1` [Example 42], the negative-log EC50 (pEC50) is 8.64.

Take `COc1cc(OCc2cccc(NC(=O)c3ccc(N(C)C)cc3)c2)c2cc(-c3cn4nc(OC)sc4n3)oc2c1` [Example 43]: the pEC50 was 8.80.

Consider `COc1cc(OCc2cccc(NC(=O)c3c(C)noc3C)c2)c2cc(-c3cn4nc(OC)sc4n3)oc2c1` [Example 45], for which the pEC50 was 8.55.
